Patent US8889876B2, “Histone deacetylase inhibitors and uses thereof” (Jiangsu Hengyi Pharmaceutical Co., Ltd., priority 2008, dated 2014)

Columns and labels:
Assay type in all cases: cell-based
[1] = system: Hut78 T-cell Leukemia cell; test: CCK-8 proliferation inhibition, Hut78; settings: Homo sapiens, read-out: Hut-78 (inhibition %); for inhibition at 10 µM: HuT78, 10 μM; for inhibition at 100 µM: HuT78, 100 μM
Protocol: (§1) Detecting the inhibition rate of the compound concentrations of 100 μM and 10 μM to Hut78 T-cell Leukemia cell, Jurkat E6-1 human T-cell lymphoma, PANC-1 human pancreatic cancer cells, A549 human lung cancer cells, K562 human chronic myeloid leukemia cells, Hep3B2.1-7 human liver cancer cells, MDA-MB-435s human breast cancer cells, Colo320 human rectal cancer cells and PC-3 human prostate cancer using CCK-8 method.

[2] = system: PANC-1 human pancreatic cancer cells; test: CCK-8 proliferation inhibition, PANC-1; settings: Homo sapiens; for inhibition at 10 µM: PANC-1, 10 μM; for inhibition at 100 µM: PANC-1, 100 μM
Protocol: as §1

[3] = system: Jurkat E6-1 human T-cell lymphoma; test: CCK-8 proliferation inhibition, Jurkat E6-1; settings: Homo sapiens; for inhibition at 10 µM: Jurkat E6.1, 10 μM; for inhibition at 100 µM: Jurkat E6.1, 100 μM
Protocol: as §1

[4] = system: K562 human chronic myeloid leukemia cells; test: CCK-8 proliferation inhibition, K562; settings: Homo sapiens; for inhibition at 10 µM: K562, 10 μM; for inhibition at 100 µM: K562, 100 μM
Protocol: as §1

[5] = system: A549 human lung cancer cells; test: CCK-8 proliferation inhibition, A549; settings: Homo sapiens, A549, CCK-8 method; for inhibition at 10 µM: compound concentration 10 μM; for inhibition at 100 µM: compound concentration 100 μM
Protocol: as §1

[6] = system: MDA-MB-435s human breast cancer cells; test: CCK-8 proliferation inhibition, MDA-MB-435s; settings: Homo sapiens, MDA-MB-435S, CCK-8 method; for inhibition at 10 µM: compound concentration 10 μM; for inhibition at 100 µM: compound concentration 100 μM
Protocol: as §1

[7] = system: Hep3B2.1-7 human liver cancer cells; test: CCK-8 proliferation inhibition, Hep3B2.1-7; settings: Homo sapiens, Hep3B, CCK-8 method; for inhibition at 10 µM: compound concentration 10 μM; for inhibition at 100 µM: compound concentration 100 μM
Protocol: as §1

[8] = system: PC-3 human prostate cancer; test: CCK-8 proliferation inhibition, PC-3; settings: Homo sapiens, CCK-8 method; for inhibition at 10 µM: compound concentration 10 μM; for inhibition at 100 µM: compound concentration 100 μM
Protocol: as §1

[9] = system: Colo320 human rectal cancer cells; test: CCK-8 proliferation inhibition, Colo320; settings: Homo sapiens, COLO 320, CCK-8 method; for inhibition at 10 µM: compound concentration 10 μM; for inhibition at 100 µM: compound concentration 100 μM
Protocol: as §1

Compound `COc1ccc(/C=C/C(=O)NCc2ccc(C(=O)Nc3ccncc3N)cc2)cc1OC` [V-94] has an inhibition at 10 µM [1] of 12.9%, an inhibition at 100 µM [1] of 66.7% and an inhibition at 10 µM [2] of 6%. It also gave an inhibition at 100 µM [2] of 27.3%, an inhibition at 10 µM [3] of 65.6% and an inhibition at 100 µM [3] of 95.6%. The inhibition at 10 µM [4] was 35%, the inhibition at 100 µM [4] was 85.7% and the inhibition at 10 µM [5] was 9.1%. The inhibition at 100 µM [5] was 58.4%, the inhibition at 10 µM [6] was 15.1% and the inhibition at 100 µM [6] was 77%. For the same compound, the inhibition at 10 µM [7] was 4.5%, the inhibition at 100 µM [7] was 69.4% and the inhibition at 10 µM [8] was 54.2%. For the same compound, the inhibition at 100 µM [8] was 87.8%, the inhibition at 10 µM [9] was -6.4% and the inhibition at 100 µM [9] was 17.8%.

In the case of `Cc1ccc(CCC(=O)NCc2ccc(C(=O)Nc3cccnc3N)cc2)cc1` [V-50, N-(2-amino-3-pyridyl)-4-[3-(4-methylphenyl)propionylaminomethyl]benzamide], the inhibition at 10 µM [1] is reported as 0.4%, the inhibition at 100 µM [1] is reported as 46.9% and the inhibition at 10 µM [2] is reported as 10.2%. It also gave an inhibition at 100 µM [2] of 12.9%, an inhibition at 10 µM [3] of 8.9% and an inhibition at 100 µM [3] of 75.9%. The inhibition at 10 µM [4] was 23.8%, the inhibition at 100 µM [4] was 75.7% and the inhibition at 10 µM [5] was 8.6%. For the same compound, the inhibition at 100 µM [5] was 14.2%, the inhibition at 10 µM [6] was 14.7% and the inhibition at 100 µM [6] was 36.9%. For the same compound, the inhibition at 10 µM [7] was -0.5%, the inhibition at 100 µM [7] was 23.5% and the inhibition at 10 µM [8] was 5.5%. It also gave an inhibition at 100 µM [8] of -3.8%, an inhibition at 10 µM [9] of 6.8% and an inhibition at 100 µM [9] of 27.4%.

Compound `Nc1cnccc1NC(=O)c1ccc(CNC(=O)/C=C/c2cccnc2)cc1` [V-43] has an inhibition at 10 µM [1] of 25.7%, an inhibition at 100 µM [1] of 49.6% and an inhibition at 10 µM [2] of 3.1%. The inhibition at 100 µM [2] was 35.9%, the inhibition at 10 µM [3] was 69.1% and the inhibition at 100 µM [3] was 96.8%. The inhibition at 10 µM [4] was 13.8%, the inhibition at 100 µM [4] was 60.8% and the inhibition at 10 µM [5] was 41.2%. For the same compound, the inhibition at 100 µM [5] was 85.5%, the inhibition at 10 µM [6] was 18.8% and the inhibition at 100 µM [6] was 86.4%. For the same compound, the inhibition at 10 µM [7] was 22.5%, the inhibition at 100 µM [7] was 60.5% and the inhibition at 10 µM [8] was 88%. The inhibition at 100 µM [8] was 94.5%, the inhibition at 10 µM [9] was 19.1% and the inhibition at 100 µM [9] was 59.4%.

With `Cc1ccc(/C=C/C(=O)NCc2ccc(C(=O)Nc3cccnc3N)cc2)cc1` [V-27, N-(2-amino-3-pyridyl)-4-[(4-methylcinnamoyl)aminomethyl]benzamide] the inhibition at 10 µM [1] was 43%, the inhibition at 100 µM [1] was 77% and the inhibition at 10 µM [2] was 20.2%. The inhibition at 100 µM [2] was 26.2%, the inhibition at 10 µM [3] was 58.3% and the inhibition at 100 µM [3] was 80.9%. For the same compound, the inhibition at 10 µM [4] was 54.3%, the inhibition at 100 µM [4] was 85.8% and the inhibition at 10 µM [5] was 6.3%. It also gave an inhibition at 100 µM [5] of 37.3%, an inhibition at 10 µM [6] of 33% and an inhibition at 100 µM [6] of 77%. It also gave an inhibition at 10 µM [7] of 25.4%, an inhibition at 100 µM [7] of 49.9% and an inhibition at 10 µM [8] of 50.2%. It also gave an inhibition at 100 µM [8] of 61%, an inhibition at 10 µM [9] of 12.9% and an inhibition at 100 µM [9] of 40.1%.

In the case of `Cc1ccc(COC(=O)NCc2ccc(C(=O)Nc3ccncc3N)cc2)cc1` [V-10], the inhibition at 10 µM [1] is reported as 15.5%, the inhibition at 100 µM [1] is reported as 66.6% and the inhibition at 10 µM [2] is reported as 16.9%. The inhibition at 100 µM [2] was 19.7%, the inhibition at 10 µM [3] was 27.2% and the inhibition at 100 µM [3] was 93.3%. The inhibition at 10 µM [4] was 53.6%, the inhibition at 100 µM [4] was 87.2% and the inhibition at 10 µM [5] was -16.9%. For the same compound, the inhibition at 100 µM [5] was 45.7%, the inhibition at 10 µM [6] was 8% and the inhibition at 100 µM [6] was 79.1%. For the same compound, the inhibition at 10 µM [7] was -7%, the inhibition at 100 µM [7] was 57.5% and the inhibition at 10 µM [8] was 23.7%. The inhibition at 100 µM [8] was 56%, the inhibition at 10 µM [9] was -5.5% and the inhibition at 100 µM [9] was 59.2%.
